Experimental data reported in ChEMBL document CHEMBL4665642, “Anticancer profile of newly synthesized BRAF inhibitors possess 5-(pyrimidin-4-yl)imidazo[2,1-b]thiazole scaffold” (Bioorg Med Chem, 2019).

Columns and labels:
Assay type in all cases: functional
Conditions in all cases: read-out: Activity
IGROV-1 = assay: Cytotoxicity against human IGROV-1 cells assessed as cell viability at 10 uM incubated for 48 hrs by sulforhodamine B assay relative to control
TK-10 = assay: Cytotoxicity against human TK-10 cells assessed as cell viability at 10 uM incubated for 48 hrs by sulforhodamine B assay relative to control
SR = assay: Cytotoxicity against human SR cells assessed as cell viability at 10 uM incubated for 48 hrs by sulforhodamine B assay relative to control
UACC-62 = assay: Cytotoxicity against human UACC-62 cells assessed as cell viability at 10 uM incubated for 48 hrs by sulforhodamine B assay relative to control
MDA-MB-231 = assay: Cytotoxicity against human MDA-MB-231 cells assessed as cell viability at 10 uM incubated for 48 hrs by sulforhodamine B assay relative to control
MOLT-4 = assay: Cytotoxicity against human MOLT-4 cells assessed as cell viability at 10 uM incubated for 48 hrs by sulforhodamine B assay relative to control
NCI-H522 = assay: Cytotoxicity against human NCI-H522 cells assessed as cell viability at 10 uM incubated for 48 hrs by sulforhodamine B assay relative to control
HOP-92 = assay: Cytotoxicity against human HOP-92 cells assessed as cell viability at 10 uM incubated for 48 hrs by sulforhodamine B assay relative to control
OVCAR-5 = assay: Cytotoxicity against human OVCAR-5 cells assessed as cell viability at 10 uM incubated for 48 hrs by sulforhodamine B assay relative to control
COLO 205 = assay: Cytotoxicity against human COLO 205 cells assessed as cell viability at 10 uM incubated for 48 hrs by sulforhodamine B assay relative to control
NCI-H460 = assay: Cytotoxicity against human NCI-H460 cells assessed as cell viability at 10 uM incubated for 48 hrs by sulforhodamine B assay relative to control
SNB-75 = assay: Cytotoxicity against human SNB-75 cells assessed as cell viability at 10 uM incubated for 48 hrs by sulforhodamine B assay relative to control
M14 = assay: Cytotoxicity against human M14 cells assessed as cell viability at 10 uM incubated for 48 hrs by sulforhodamine B assay relative to control
KM12 = assay: Cytotoxicity against human KM12 cells assessed as cell viability at 10 uM incubated for 48 hrs by sulforhodamine B assay relative to control
BT-549 = assay: Cytotoxicity against human BT-549 cells assessed as cell viability at 10 uM incubated for 48 hrs by sulforhodamine B assay relative to control
A549 = assay: Cytotoxicity against human A549 cells assessed as cell viability at 10 uM incubated for 48 hrs by sulforhodamine B assay relative to control
SN12C = assay: Cytotoxicity against human SN12C cells assessed as cell viability at 10 uM incubated for 48 hrs by sulforhodamine B assay relative to control
OVCAR-4 = assay: Cytotoxicity against human OVCAR-4 cells assessed as cell viability at 10 uM incubated for 48 hrs by sulforhodamine B assay relative to control
DU-145 = assay: Cytotoxicity against human DU-145 cells assessed as cell viability at 10 uM incubated for 48 hrs by sulforhodamine B assay relative to control
NCI-H23 = assay: Cytotoxicity against human NCI-H23 cells assessed as cell viability at 10 uM incubated for 48 hrs by sulforhodamine B assay relative to control
MDA-MB-468 = assay: Cytotoxicity against human MDA-MB-468 cells assessed as cell viability at 10 uM incubated for 48 hrs by sulforhodamine B assay relative to control
PC-3 = assay: Cytotoxicity against human PC-3 cells assessed as cell viability at 10 uM incubated for 48 hrs by sulforhodamine B assay relative to control
SK-MEL-28 = assay: Cytotoxicity against human SK-MEL-28 cells assessed as cell viability at 10 uM incubated for 48 hrs by sulforhodamine B assay relative to control
Hs-578T = assay: Cytotoxicity against human HS-578T cells assessed as cell viability at 10 uM incubated for 48 hrs by sulforhodamine B assay relative to control
SW-620 = assay: Cytotoxicity against human SW-620 cells assessed as cell viability at 10 uM incubated for 48 hrs by sulforhodamine B assay relative to control
786-0 = assay: Cytotoxicity against human 786-0 cells assessed as cell viability at 10 uM incubated for 48 hrs by sulforhodamine B assay relative to control
U-251 = assay: Cytotoxicity against human U-251 cells assessed as cell viability at 10 uM incubated for 48 hrs by sulforhodamine B assay relative to control
EKVX = assay: Cytotoxicity against human EKVX cells assessed as cell viability at 10 uM incubated for 48 hrs by sulforhodamine B assay relative to control
NCI-H226 = assay: Cytotoxicity against human NCI-H226 cells assessed as cell viability at 10 uM incubated for 48 hrs by sulforhodamine B assay relative to control
SF-268 = assay: Cytotoxicity against human SF-268 cells assessed as cell viability at 10 uM incubated for 48 hrs by sulforhodamine B assay relative to control
K562 = assay: Cytotoxicity against human K562 cells assessed as cell viability at 10 uM incubated for 48 hrs by sulforhodamine B assay relative to control
NCI/ADR-RES = assay: Cytotoxicity against human NCI/ADR-RES cells assessed as cell viability at 10 uM incubated for 48 hrs by sulforhodamine B assay relative to control
HL-60(TB) = assay: Cytotoxicity against human HL-60(TB) cells assessed as cell viability at 10 uM incubated for 48 hrs by sulforhodamine B assay relative to control
CCRF-CEM = assay: Cytotoxicity against human CCRF-CEM cells assessed as cell viability at 10 uM incubated for 48 hrs by sulforhodamine B assay relative to control
OVCAR-8 = assay: Cytotoxicity against human OVCAR-8 cells assessed as cell viability at 10 uM incubated for 48 hrs by sulforhodamine B assay relative to control
RPMI-8226 = assay: Cytotoxicity against human RPMI-8226 cells assessed as cell viability at 10 uM incubated for 48 hrs by sulforhodamine B assay relative to control
MDA-MB-435 = assay: Cytotoxicity against human MDA-MB-435 cells assessed as cell viability at 10 uM incubated for 48 hrs by sulforhodamine B assay relative to control
HOP-62 = assay: Cytotoxicity against human HOP-62 cells assessed as cell viability at 10 uM incubated for 48 hrs by sulforhodamine B assay relative to control
SNB-19 = assay: Cytotoxicity against human SNB-19 cells assessed as cell viability at 10 uM incubated for 48 hrs by sulforhodamine B assay relative to control
OVCAR-3 = assay: Cytotoxicity against human OVCAR-3 cells assessed as cell viability at 10 uM incubated for 48 hrs by sulforhodamine B assay relative to control
ACHN = assay: Cytotoxicity against human ACHN cells assessed as cell viability at 10 uM incubated for 48 hrs by sulforhodamine B assay relative to control

## O=S(=O)(NCCNc1nccc(-c2c(-c3cccc(F)c3)nc3sccn23)n1)c1ccccc1
IGROV-1
  viability at 10 µM: 4.9%
TK-10
  viability at 10 µM: 59.5%
SR
  viability at 10 µM: 29.2%
UACC-62
  viability at 10 µM: 24.9%
MDA-MB-231
  viability at 10 µM: 66%
MOLT-4
  viability at 10 µM: 16.6%
NCI-H522
  viability at 10 µM: 43.7%
HOP-92
  viability at 10 µM: 51.5%
OVCAR-5
  viability at 10 µM: 79.6%
COLO 205
  viability at 10 µM: 24.1%
NCI-H460
  viability at 10 µM: 25.9%
SNB-75
  viability at 10 µM: 71.5%
M14
  viability at 10 µM: 41.4%
KM12
  viability at 10 µM: 28.8%
BT-549
  viability at 10 µM: 50.4%
A549
  viability at 10 µM: 25.2%
SN12C
  viability at 10 µM: 40.3%
OVCAR-4
  viability at 10 µM: 40%
DU-145
  viability at 10 µM: 40%
NCI-H23
  viability at 10 µM: 56.1%
MDA-MB-468
  viability at 10 µM: 43.6%
PC-3
  viability at 10 µM: 33.1%
SK-MEL-28
  viability at 10 µM: 54.3%
Hs-578T
  viability at 10 µM: 55.5%
SW-620
  viability at 10 µM: 44.5%
786-0
  viability at 10 µM: 47.4%
U-251
  viability at 10 µM: 44%
EKVX
  viability at 10 µM: 53.4%
NCI-H226
  viability at 10 µM: 34.5%
SF-268
  viability at 10 µM: 43.5%
K562
  viability at 10 µM: 23.9%
NCI/ADR-RES
  viability at 10 µM: 46.3%
HL-60(TB)
  viability at 10 µM: 63.1%
CCRF-CEM
  viability at 10 µM: 33.6%
OVCAR-8
  viability at 10 µM: 33.9%
RPMI-8226
  viability at 10 µM: 43.5%
MDA-MB-435
  viability at 10 µM: 17.4%
HOP-62
  viability at 10 µM: 60.2%
SNB-19
  viability at 10 µM: 55.9%
OVCAR-3
  viability at 10 µM: 58.9%
ACHN
  viability at 10 µM: 26%

## O=S(=O)(NCCCNc1nccc(-c2c(-c3cccc(F)c3)nc3sccn23)n1)c1ccccc1
IGROV-1
  viability at 10 µM: 35.2%
TK-10
  viability at 10 µM: 92.8%
SR
  viability at 10 µM: 82.2%
UACC-62
  viability at 10 µM: 26.8%
MDA-MB-231
  viability at 10 µM: 70.8%
MOLT-4
  viability at 10 µM: 37.1%
NCI-H522
  viability at 10 µM: 47%
HOP-92
  viability at 10 µM: 80.2%
OVCAR-5
  viability at 10 µM: 121%
COLO 205
  viability at 10 µM: 29%
NCI-H460
  viability at 10 µM: 65.3%
SNB-75
  viability at 10 µM: 102%
M14
  viability at 10 µM: 50.5%
KM12
  viability at 10 µM: 62.1%
BT-549
  viability at 10 µM: 71.1%
A549
  viability at 10 µM: 63%
SN12C
  viability at 10 µM: 58.2%
OVCAR-4
  viability at 10 µM: 54.8%
DU-145
  viability at 10 µM: 72.7%
NCI-H23
  viability at 10 µM: 76.9%
MDA-MB-468
  viability at 10 µM: 62.7%
PC-3
  viability at 10 µM: 53.5%
SK-MEL-28
  viability at 10 µM: 83.4%
Hs-578T
  viability at 10 µM: 89.9%
SW-620
  viability at 10 µM: 91.3%
786-0
  viability at 10 µM: 74%
U-251
  viability at 10 µM: 82.3%
EKVX
  viability at 10 µM: 65.4%
NCI-H226
  viability at 10 µM: 43.2%
SF-268
  viability at 10 µM: 71.5%
K562
  viability at 10 µM: 34.3%
NCI/ADR-RES
  viability at 10 µM: 53.4%
HL-60(TB)
  viability at 10 µM: 101%
CCRF-CEM
  viability at 10 µM: 44.1%
OVCAR-8
  viability at 10 µM: 43%
RPMI-8226
  viability at 10 µM: 48%
MDA-MB-435
  viability at 10 µM: 41.7%
HOP-62
  viability at 10 µM: 98.9%
SNB-19
  viability at 10 µM: 93.5%
OVCAR-3
  viability at 10 µM: 74.9%
ACHN
  viability at 10 µM: 54.1%
